In US9000022B2 (Exelixis Patent Company LLC, priority 2005, dated 2015) one finds EC50 and IC50 or EC50 (potency, activation or inhibition) data, which are given here for 23 compounds.

The first test deals with LXRα and/or LXRβ. The test is described as follows: Co-transfection assay (LXRE luciferase reporter, CV-1 cells). Format: cell-based, human. Particulars: read-out: activity (IC50 or EC50 for LXR), tested as described in Example 33, isoform not specified. A digest of the protocol: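 Luciferase signal measures LXR-RXR transcriptional activation in transiently transfected CV-1 cells carrying human LXRα or LXRβ, RXRα and a single-copy LXRE reporter. Cells were exposed to compound for 20 h at 37 °C with at most 1% DMSO, using 10 μM final for screening. Potency was derived from 4-parameter fits of 8-point, half-log dose curves averaged over ≥3 runs, and efficacy was expressed as % of a reference agonist.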
As to `CCS(=O)(=O)c1cccc(-c2ccc(-n3cc(C(C)(C)O)nc3CCc3ccccc3Cl)cc2)c1` [Example 28, 2-(2-(2-chlorophenethyl)-1-(3′-(ethylsulfonyl)biphenyl-4-yl)-1H-imidazol-4-yl)propan-2-ol], the EC50 is less than 1000 nM.

The test is the same for the next values; noted with them: tested as described in Example 33; IC50 or EC50 for LXRα and/or LXRβ, isoform not specified; read-out: activity (IC50 or EC50 for LXR).
As for `CC(C)(O)c1cn(-c2ccc(-c3cccc(S(C)(=O)=O)c3)cc2)c(-c2ccccc2C(F)(F)F)n1` [Example 198, 2-{1-[3′-(methylsulfonyl)biphenyl-4-yl]-2-[2-(trifluoromethyl)phenyl]-1H-imidazol-4-yl}propan-2-ol], the IC50 or EC50 (potency, activation or inhibition) was less than 1000 nM.

As to `Cc1cc(-c2ccc(CO)c(S(C)(=O)=O)c2)ccc1-n1cc(C(C)(C)O)nc1-c1cccc(F)c1Cl` [Example 173, 2-(2-(2-chloro-3-fluorophenyl)-1-(4′-(hydroxymethyl)-3-methyl-3′-(methylsulfonyl)biphenyl-4-yl)-1H-imidazol-4-yl)propan-2-ol], the IC50 or EC50 (potency, activation or inhibition) is less than 1000 nM. As for `CC(C)c1cccc(-c2ccc(-n3cc(C(C)(C)O)nc3-c3ccccc3Cl)cc2)c1` [Example 388], the IC50 or EC50 (potency, activation or inhibition) lay in the range of 1000 to 10000 nM. Still for that read-out and setting: the result for `Cc1cc(-c2ccc(CO)c(S(C)(=O)=O)c2)ccc1-n1cc(C(C)(C)O)nc1-c1c(Cl)cccc1Cl` [Example 174, 2-(2-(2,6-dichlorophenyl)-1-(4′-(hydroxymethyl)-3-methyl-3′-(methylsulfonyl)biphenyl-4-yl)-1H-imidazol-4-yl)propan-2-ol] reads less than 1000 nM; that for `C/C(=N\O)c1cn(-c2ccc(-c3cccc(S(C)(=O)=O)c3)cc2)c(-c2c(Cl)cccc2Cl)n1` [Example 70, (E)-1-(2-(2,6-dichlorophenyl)-1-(3′-(methylsulfonyl)biphenyl-4-yl)-1H-imidazol-4-yl)ethanone oxime], less than 1000 nM; that for `CCS(=O)(=O)c1cccc(-c2ccc(-n3cc(C(=O)NCCO)nc3-c3c(Cl)cccc3Cl)c(Cl)c2)c1` [Example 471, 1-(3-chloro-3′-(ethylsulfonyl)biphenyl-4-yl)-2-(2,6-dichlorophenyl)-N-(2-hydroxyethyl)-1H-imidazole-4-carboxamide], less than 1000 nM. Still for that read-out and setting: the result for `CCS(=O)(=O)c1cccc(-c2ccc(-n3cc(C(C)(C)O)nc3-c3c(F)cccc3F)c(C)c2)c1` [Example 194, 2-(2-(2,6-difluorophenyl)-1-(3′-(ethylsulfonyl)-3-methylbiphenyl-4-yl)-1H-imidazol-4-yl)propan-2-ol] reads less than 1000 nM; that for `Cc1cc(-c2cccc(S(C)(=O)=O)c2)ccc1-n1cc(C(C)(C)O)nc1-c1c(Cl)cccc1Cl` [Example 181, 2-(2-(2,6-dichlorophenyl)-1-(3-methyl-3′-(methylsulfonyl)biphenyl-4-yl)-1H-imidazol-4-yl)propan-2-ol], less than 1000 nM.

Regarding `CCS(=O)(=O)c1cccc(-c2ccc(-n3cc(C(C)(C)O)nc3-c3c(Cl)cccc3Cl)c(C)c2)c1` [Example 182, 2-(2-(2,6-dichlorophenyl)-1-(3′-(ethylsulfonyl)-3-methylbiphenyl-4-yl)-1H-imidazol-4-yl)propan-2-ol], the IC50 or EC50 (potency, activation or inhibition) is less than 1000 nM. Take `Cc1cc(-c2cccc(S(C)(=O)=O)c2)ccc1-n1cc(C(C)(C)O)nc1-c1c(F)cccc1F` [Example 193, 2-(2-(2,6-difluorophenyl)-1-(3-methyl-3′-(methylsulfonyl)biphenyl-4-yl)-1H-imidazol-4-yl)propan-2-ol]: the IC50 or EC50 (potency, activation or inhibition) was less than 1000 nM. Same read-out and setting: the value for `CC(C)(O)c1cn(-c2ccc(-c3cccc(S(C)(=O)=O)c3)cc2Cl)c(-c2c(F)cccc2Cl)n1` [Example 145, 2-(1-(3-chloro-3′-(methyl-sulfonyl)biphenyl-4-yl)-2-(2-chloro-6-fluorophenyl)-1H-imidazol-4-yl)propan-2-ol] was less than 1000 nM; that for `CC(C)(O)c1cn(-c2ccc(-c3ccc(CO)c(S(C)(=O)=O)c3)cc2F)c(-c2cccc(Cl)c2Cl)n1` [Example 117, 2-(2-(2,3-dichlorophenyl)-1-(3-fluoro-4′-(hydroxymethyl)-3′-(methyl-sulfonyl)biphenyl-4-yl)-1H-imidazol-4-yl)propan-2-ol] was less than 1000 nM; that for `CCS(=O)(=O)c1cccc(-c2ccc(-n3cc(C(C)(C)O)nc3Cc3c(F)cccc3Cl)cc2)c1` [Example 10, 2-(2-(2-chloro-6-fluorobenzyl)-1-(3′-(ethylsulfonyl)biphenyl-4-yl)-1H-imidazol-4-yl)propan-2-ol] was less than 1000 nM.

As for `CCS(=O)(=O)c1cccc(-c2ccc(-n3cc(C(C)(C)O)nc3-c3ccccc3C(F)(F)F)c(Cl)c2)c1` [Example 136, 2-(1-(3-chloro-3′-(ethyl-sulfonyl)biphenyl-4-yl)-2-(2-(trifluoromethyl)phenyl)-1H-imidazol-4-yl)propan-2-ol], the IC50 or EC50 (potency, activation or inhibition) is less than 1000 nM. As for `CC(C)(O)c1cn(-c2ccc(-c3cccc(S(N)(=O)=O)c3)cc2)c(-c2ccccc2Cl)n1` [Example 384, 4′-[2-(2-chlorophenyl)-4-(1-hydroxy-1-methylethyl)-1H-imidazol-1-yl]biphenyl-3-sulfonamide], the IC50 or EC50 (potency, activation or inhibition) was 1000 to 10000 nM. Still for that read-out and setting: the result for `CCC(O)(CC)c1cn(-c2ccc(-c3cccc(S(C)(=O)=O)c3)cc2)c(-c2c(Cl)cccc2Cl)n1` [Example 74, 3-(2-(2,6-dichlorophenyl)-1-(3′-(methylsulfonyl)biphenyl-4-yl)-1H-imidazol-4-yl)pentan-3-ol] reads less than 1000 nM. As for `CS(=O)(=O)c1cccc(-c2ccc(-n3cc(C(F)(F)F)nc3-c3ccccc3C(F)(F)F)nc2)c1` [Example 369, 5-[3-(methylsulfonyl)phenyl]-2-{4-(trifluoromethyl)-2-[2-(trifluoro-methyl)phenyl]-1H-imidazol-1-yl}pyridine], the IC50 or EC50 (potency, activation or inhibition) is less than 1000 nM. `CC(C)(O)c1cn(-c2ccc(-c3ccc(CO)c(S(C)(=O)=O)c3)cc2)c(CCc2ccccc2Cl)n1` [Example 29]: the IC50 or EC50 (potency, activation or inhibition) is less than 1000 nM.

For the compound `CC(C)(O)c1cn(-c2ccc(-c3cccc(S(C)(=O)=O)c3)cc2)c(-c2c(F)cccc2Cl)n1` [Example 416, 2-{2-(2-chloro-6-fluorophenyl)-1-[3′-(methylsulfonyl)biphenyl-4-yl]-1H-imidazol-4-yl}propan-2-ol], the IC50 or EC50 (potency, activation or inhibition) was 1000 to 10000 nM. For `CNS(=O)(=O)c1cccc(-c2ccc(-n3cc(C(C)(C)O)nc3-c3c(Cl)cccc3Cl)cc2)c1` [Example 108, 4′-(2-(2,6-dichlorophenyl)-4-(2-hydroxypropan-2-yl)-1H-imidazol-1-yl)-N-methylbiphenyl-3-sulfonamide], the IC50 or EC50 (potency, activation or inhibition) was less than 1000 nM. For the compound `CCS(=O)(=O)c1cccc(-c2ccc(-n3cc(C(C)(C)O)nc3-c3cccc(Cl)c3Cl)c(C)c2)c1` [Example 180, 2-(2-(2,3-dichlorophenyl)-1-(3′-(ethylsulfonyl)-3-methylbiphenyl-4-yl)-1H-imidazol-4-yl)propan-2-ol], the IC50 or EC50 (potency, activation or inhibition) was less than 1000 nM. For the compound `CCS(=O)(=O)c1cccc(-c2ccc(-n3cc(C(C)(C)O)nc3-c3c(F)cccc3Cl)c(Cl)c2)c1` [Example 146, 2-(1-(3-chloro-3′-(ethyl-sulfonyl)biphenyl-4-yl)-2-(2-chloro-6-fluorophenyl)-1H-imidazol-4-yl)propan-2-ol], the IC50 or EC50 (potency, activation or inhibition) is less than 1000 nM.
